Experimental data: PubChem BioAssay (NCI)
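Where inhibition never reached the appropriate level, the endpoint shown equals the highest concentration tested. Otherwise, values were interpolated linearly from a five-concentration, 48-hour dose response in 96-well plates. GI50 is the concentration that inhibits growth by half. The concentration for full growth arrest is given as TGI.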

Assays:
Assay in all cases: inhibition of tumour cell growth, NCI panel, 48 h
786-0 renal = test system: 786-0 renal
ACHN renal = test system: ACHN renal
HCC-2998 colon = test system: HCC-2998 colon
HOP-92 NSCLC = test system: HOP-92 NSCLC
NCI/ADR-RES ovarian = test system: NCI/ADR-RES ovarian
PC-3 prostate = test system: PC-3 prostate
SF-268 CNS = test system: SF-268 CNS
SF-539 CNS = test system: SF-539 CNS
T-47D breast = test system: T-47D breast
U251 CNS = test system: U251 CNS

| SMILES | TGI (786-0 renal) [µM] | TGI (ACHN renal) [µM] | TGI (HCC-2998 colon) [µM] | TGI (HOP-92 NSCLC) [µM] | TGI (NCI/ADR-RES ovarian) [µM] | TGI (PC-3 prostate) [µM] | TGI (SF-268 CNS) [µM] | TGI (SF-539 CNS) [µM] | TGI (T-47D breast) [µM] | TGI (U251 CNS) [µM] | GI50 (786-0 renal) [µM] | GI50 (ACHN renal) [µM] | GI50 (HCC-2998 colon) [µM] | GI50 (HOP-92 NSCLC) [µM] | GI50 (NCI/ADR-RES ovarian) [µM] | GI50 (PC-3 prostate) [µM] | GI50 (SF-268 CNS) [µM] | GI50 (SF-539 CNS) [µM] | GI50 (T-47D breast) [µM] | GI50 (U251 CNS) [µM] |
| --- | --- | --- | --- | --- | --- | --- | --- | --- | --- | --- | --- | --- | --- | --- | --- | --- | --- | --- | --- | --- |
| CN(C)CC1CCCCCC(Br)C1=O (centres undefined) | 8.62 | 19.6 | 25.7 | 22.2 | 37.8 | 43.6 | > 66.1 | 31.8 | > 54.6 | 43 | – | – | – | – | – | – | – | – | – | – |
| CCCCCCCCCCCC1=NC(C)(C)CN1CC(C)O (centres undefined) | 25.9 | 21.6 | 3.07 | 13.6 | 24.1 | 18.6 | 19.9 | 3.14 | 11.2 | 12 | 11.8 | 10 | 1.69 | 2.06 | 11.8 | 4.48 | 7.35 | 1.67 | 3.27 | 3.3 |
| CC(C)C[CH2][Ge]([CH2]CC(C)C)([CH2]CC(C)C)[CH2]CC(C)C | > 100 | > 100 | – | – | > 100 | > 100 | > 100 | > 100 | > 100 | > 100 | > 100 | > 100 | – | – | > 100 | > 100 | > 100 | > 100 | > 100 | > 100 |
| O=C(Nc1ccc(Nc2ccncc2)cc1)c1ccc(Nc2ccnc3ccc([N+](=O)[O-])cc23)cc1[N+](=O)[O-] | 42.4 | 37.2 | > 100 | > 74.2 | > 100 | > 40 | – | 11.2 | 34.9 | > 24.8 | 6.03 | 15.5 | 32.9 | 24.6 | 12.8 | 5.05 | – | 2.98 | 6.39 | 2.76 |
